Test results: ChEMBL document CHEMBL1201862, “PubChem BioAssay data set” (2004)
Active and inactive are the calls of the source.

Legend:
[1] = HEK293 Cytotoxicity Assay Measured in Cell-Based System Using Plate Reader - 7071-01_Inhibitor_Dose_CherryPick_Activity_Set2.; type: functional
HEK293 = test: HEK293T cell cytotoxicity, dose response, cytotoxicity control, ATP luminescence, cherry-pick samples (AID 687005); type: functional, cell-based; details: Homo sapiens;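 also: cells exposed to compound for 48 hours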
[2] = biological target: ATP-dependent translocase ABCB1 (Homo sapiens, UniProt P08183); test: ABCB1 efflux inhibition concentration-response, dose response, Jurkat-DNR cells, JC-1, flow cytometry, follow-up (AID 489002); type: functional
ATP-dependent translocase ABCB1, sequence (P08183 whole entry): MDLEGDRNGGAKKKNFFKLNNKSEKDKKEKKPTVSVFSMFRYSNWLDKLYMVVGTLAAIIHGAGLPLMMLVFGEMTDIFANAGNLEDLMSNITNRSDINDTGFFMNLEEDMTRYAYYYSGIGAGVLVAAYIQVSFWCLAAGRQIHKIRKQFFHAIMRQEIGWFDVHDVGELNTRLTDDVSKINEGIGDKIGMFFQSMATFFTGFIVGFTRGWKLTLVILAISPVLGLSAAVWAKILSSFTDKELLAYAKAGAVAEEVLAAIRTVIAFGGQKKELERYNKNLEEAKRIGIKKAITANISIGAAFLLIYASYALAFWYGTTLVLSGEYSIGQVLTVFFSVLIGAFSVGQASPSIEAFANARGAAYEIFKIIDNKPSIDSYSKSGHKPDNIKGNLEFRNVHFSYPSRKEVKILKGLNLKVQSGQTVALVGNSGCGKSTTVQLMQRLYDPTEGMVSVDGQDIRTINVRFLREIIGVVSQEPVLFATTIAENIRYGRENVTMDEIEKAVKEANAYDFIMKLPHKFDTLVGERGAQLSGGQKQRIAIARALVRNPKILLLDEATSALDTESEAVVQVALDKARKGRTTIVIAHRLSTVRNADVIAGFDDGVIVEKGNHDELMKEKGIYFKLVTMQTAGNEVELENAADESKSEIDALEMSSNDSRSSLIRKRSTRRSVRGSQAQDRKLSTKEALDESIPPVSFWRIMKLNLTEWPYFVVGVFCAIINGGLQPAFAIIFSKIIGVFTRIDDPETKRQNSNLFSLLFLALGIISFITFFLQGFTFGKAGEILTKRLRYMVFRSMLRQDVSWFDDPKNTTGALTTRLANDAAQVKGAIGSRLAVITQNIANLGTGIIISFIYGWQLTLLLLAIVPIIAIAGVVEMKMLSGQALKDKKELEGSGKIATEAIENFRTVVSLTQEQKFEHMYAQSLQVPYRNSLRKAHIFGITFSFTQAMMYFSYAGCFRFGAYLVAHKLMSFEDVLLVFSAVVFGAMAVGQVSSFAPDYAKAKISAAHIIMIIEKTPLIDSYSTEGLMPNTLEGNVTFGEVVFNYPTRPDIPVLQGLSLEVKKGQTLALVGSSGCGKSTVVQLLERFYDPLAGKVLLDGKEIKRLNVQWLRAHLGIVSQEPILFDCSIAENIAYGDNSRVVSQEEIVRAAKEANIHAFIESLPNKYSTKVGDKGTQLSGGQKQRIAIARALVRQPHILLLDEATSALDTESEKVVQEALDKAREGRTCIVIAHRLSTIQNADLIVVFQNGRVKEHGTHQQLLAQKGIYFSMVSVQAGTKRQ

[3] = biological target: Sphingosine 1-phosphate receptor 1 (Homo sapiens, UniProt P21453); test: Late-stage counterscreen for antagonists of kappa opioid receptor 1 (OPRK1): fluorescence-based cell-based dose response assay to identify antagonists of Sphingosine 1-Phosphate Receptor 1 (S1P1).; type: functional
Sphingosine 1-phosphate receptor 1, sequence (P21453 whole entry): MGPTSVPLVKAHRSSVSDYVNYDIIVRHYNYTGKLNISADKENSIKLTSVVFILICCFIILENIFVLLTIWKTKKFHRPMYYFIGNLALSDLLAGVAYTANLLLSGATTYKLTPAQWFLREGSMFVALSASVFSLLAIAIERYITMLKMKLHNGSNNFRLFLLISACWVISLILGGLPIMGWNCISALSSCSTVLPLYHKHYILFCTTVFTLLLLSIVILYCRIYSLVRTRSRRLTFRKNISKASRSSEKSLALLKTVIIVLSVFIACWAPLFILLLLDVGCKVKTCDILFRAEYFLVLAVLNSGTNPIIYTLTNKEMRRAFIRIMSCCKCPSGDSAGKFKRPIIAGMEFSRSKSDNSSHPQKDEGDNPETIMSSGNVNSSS

[4] = TRPM1 promoter luciferase reporter signal decrease, dose response, MITF inhibitor project, cell-based, SK-MEL-5, dry powder, set 8 (AID 624430); type: functional
[5] = MITF: Counter assay: A375 proliferation Measured in Cell-Based System Using Plate Reader - 2084-03_Inhibitor_Dose_DryPowder_Activity_Set8.; type: functional; details: A-375
[6] = MITF Orthogonal Assay: SK-MEL-5 CTG Assay Measured in Cell-Based System Using Plate Reader - 2084-02_Inhibitor_Dose_DryPowder_Activity_Set7.; type: functional
cells [7] = type: functional, cell-based
[8] = biological target: T1, Trace amine-associated receptor 1 (Homo sapiens, UniProt Q96RJ0); test: Fluorescence-based cell-based high throughput dose response assay to identify agonists of the human trace amine associated receptor 1 (TAAR1).; type: functional
T1 sequence (Q96RJ0 whole entry): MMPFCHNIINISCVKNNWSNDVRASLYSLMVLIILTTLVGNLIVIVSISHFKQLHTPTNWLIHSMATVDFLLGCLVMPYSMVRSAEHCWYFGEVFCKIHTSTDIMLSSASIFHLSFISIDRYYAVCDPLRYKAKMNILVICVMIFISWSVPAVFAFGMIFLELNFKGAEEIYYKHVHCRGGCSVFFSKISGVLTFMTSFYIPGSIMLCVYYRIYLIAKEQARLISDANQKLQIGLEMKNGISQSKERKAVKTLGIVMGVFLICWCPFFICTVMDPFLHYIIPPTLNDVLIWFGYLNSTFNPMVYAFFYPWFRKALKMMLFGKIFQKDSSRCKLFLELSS

[9] = biological target: T1, Trace amine-associated receptor 1; test: Counterscreen for agonists of the human trace amine associated receptor 1 (hTAAR1): Fluorescence-based cell-based high throughput dose response assay to identify hTAAR1 agonist that also desensitize TAAR1 receptor response.; type: functional
cells [10] = type: functional, cell-based; remark: listed apart in the source
[11] = biological target: Metabotropic glutamate receptor 5 (Rattus norvegicus, UniProt P31424); test: Identification of a glycine sulfonamide based non-MPEP site positive allosteric potentiator (PAM) of mGlu5 (calcium_assay).; type: functional
A549 = test: A549 cell toxicity, dose response, cytotoxicity control, plate reader, cherry-pick samples (AID 687028); type: functional, cell-based; details: Homo sapiens
INS1 = test: beta cell apoptosis inhibitors, cytokine rescue, dose response, luminescence, retest (AID 449756); type: functional, cell-based; details: Rattus norvegicus;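 also: cell death triggered by IL-1 beta plus TNF-alpha plus IFN-gamma mixture; protective hits raise ATP signal compared with cytokine alone wells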
[12] = Shn3 3'UTR reporter inhibitors, dose response, cell-based, Clone20 osteoblasts, firefly luciferase, cherry-picked (AID 624132); type: functional;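 also: firefly luciferase luminescence from reporter carrying the Shn3 3'UTR in osteoblasts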
Protein Wnt-3a = Protein Wnt-3a (Mus musculus, UniProt P27467); test: Wnt3a-driven reporter signaling inhibition, dose response, selectivity assay for Gli-SUFU antagonist project, Wnt-LIGHT cells, luminescence (AID 651570); type: functional; details: read-out: IC50_Mean;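 also: Wnt-LIGHT reporter cells stimulated with conditioned medium from Wnt3a-producing cells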
Protein Wnt-3a, sequence (P27467 whole entry): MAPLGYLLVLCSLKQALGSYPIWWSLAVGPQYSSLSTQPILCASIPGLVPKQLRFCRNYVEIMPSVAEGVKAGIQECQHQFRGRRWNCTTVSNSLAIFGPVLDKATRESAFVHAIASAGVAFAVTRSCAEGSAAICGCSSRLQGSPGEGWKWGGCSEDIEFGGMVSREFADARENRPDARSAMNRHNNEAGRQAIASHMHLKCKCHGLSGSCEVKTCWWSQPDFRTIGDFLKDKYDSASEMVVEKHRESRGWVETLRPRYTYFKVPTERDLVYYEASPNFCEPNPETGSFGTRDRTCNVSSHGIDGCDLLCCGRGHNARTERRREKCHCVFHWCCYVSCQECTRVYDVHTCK

cells [13] = type: functional, cell-based; details: HEK-CNG
[14] = control 3'UTR Renilla luciferase suppression, dose response, counter-screen for Shn3 inhibitor project, cell-based, Clone20-Shn3RL, cherry-picked (AID 624133); type: functional
[15] = cytotoxicity in HEK-293T cells, dose response, cytotoxicity control for TCR NF-kB inhibitor project, luminescence, T-cell screen hits (AID 489026); type: functional, cell-based;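 also: cells exposed to compound about 14 hours before the viability readout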
[16] = biological target: T2, High affinity choline transporter 1 (Homo sapiens, UniProt Q9GZV3); test: CHT inhibitors, dose response, cell-based, 5-point CRC, membrane potential dye (AID 504840); type: functional
T2 sequence (Q9GZV3 whole entry): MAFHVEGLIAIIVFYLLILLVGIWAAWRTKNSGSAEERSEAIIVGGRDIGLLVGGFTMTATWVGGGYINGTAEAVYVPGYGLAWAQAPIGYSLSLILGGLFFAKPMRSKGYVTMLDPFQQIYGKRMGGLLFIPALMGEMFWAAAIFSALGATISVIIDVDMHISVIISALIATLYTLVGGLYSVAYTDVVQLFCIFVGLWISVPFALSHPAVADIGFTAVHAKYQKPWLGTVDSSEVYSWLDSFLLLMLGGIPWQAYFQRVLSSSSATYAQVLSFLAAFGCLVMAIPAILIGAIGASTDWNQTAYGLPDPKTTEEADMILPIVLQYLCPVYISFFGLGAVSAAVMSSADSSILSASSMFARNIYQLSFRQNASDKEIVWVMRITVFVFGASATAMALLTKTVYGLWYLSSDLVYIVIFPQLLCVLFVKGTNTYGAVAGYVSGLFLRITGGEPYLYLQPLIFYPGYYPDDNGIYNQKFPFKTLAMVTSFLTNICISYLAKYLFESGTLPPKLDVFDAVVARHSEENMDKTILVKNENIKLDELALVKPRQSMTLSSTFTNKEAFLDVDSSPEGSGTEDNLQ

Galanin receptor type 3 = Galanin receptor type 3 (Homo sapiens, UniProt O60755); test: Fluorescence-based cell-based primary high throughput dose response assay to identify antagonists of the Galanin Receptor 3 (GalR3).; type: functional
Galanin receptor type 3, sequence (O60755 whole entry): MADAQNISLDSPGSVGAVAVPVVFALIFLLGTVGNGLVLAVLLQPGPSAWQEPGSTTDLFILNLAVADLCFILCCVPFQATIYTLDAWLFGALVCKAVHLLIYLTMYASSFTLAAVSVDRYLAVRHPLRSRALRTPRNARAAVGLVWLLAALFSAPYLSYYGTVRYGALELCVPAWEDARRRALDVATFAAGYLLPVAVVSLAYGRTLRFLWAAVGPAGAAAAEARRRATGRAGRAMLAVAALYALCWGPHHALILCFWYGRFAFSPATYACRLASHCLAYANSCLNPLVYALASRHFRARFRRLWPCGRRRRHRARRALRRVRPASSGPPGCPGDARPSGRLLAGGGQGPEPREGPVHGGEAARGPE

Mu-type opioid receptor = Mu-type opioid receptor (Homo sapiens, UniProt P35372); test: Late-stage results from the probe development effort to identify antagonists of OPRK1: luminescence-based cell-based dose response OPRM1 counterscreen.; type: functional
Mu-type opioid receptor, sequence (P35372 whole entry): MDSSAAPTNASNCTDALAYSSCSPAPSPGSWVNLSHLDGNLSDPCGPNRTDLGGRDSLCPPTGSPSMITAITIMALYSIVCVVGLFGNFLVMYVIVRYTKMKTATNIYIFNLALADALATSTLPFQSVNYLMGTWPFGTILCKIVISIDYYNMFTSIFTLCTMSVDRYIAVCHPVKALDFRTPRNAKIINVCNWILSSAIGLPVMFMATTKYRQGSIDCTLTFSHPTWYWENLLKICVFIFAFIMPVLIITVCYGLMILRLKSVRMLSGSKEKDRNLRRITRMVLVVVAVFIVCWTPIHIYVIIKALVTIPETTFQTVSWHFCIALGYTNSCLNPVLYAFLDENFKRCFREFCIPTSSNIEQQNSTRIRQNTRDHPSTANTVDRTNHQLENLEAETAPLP

[17] = biological target: Delta-type opioid receptor (Homo sapiens, UniProt P41143); test: Late-stage results from the probe development effort to identify antagonists of OPRK1: fluorescence-based cell-based dose response OPRD1 counterscreen.; type: functional
Delta-type opioid receptor, sequence (P41143 whole entry): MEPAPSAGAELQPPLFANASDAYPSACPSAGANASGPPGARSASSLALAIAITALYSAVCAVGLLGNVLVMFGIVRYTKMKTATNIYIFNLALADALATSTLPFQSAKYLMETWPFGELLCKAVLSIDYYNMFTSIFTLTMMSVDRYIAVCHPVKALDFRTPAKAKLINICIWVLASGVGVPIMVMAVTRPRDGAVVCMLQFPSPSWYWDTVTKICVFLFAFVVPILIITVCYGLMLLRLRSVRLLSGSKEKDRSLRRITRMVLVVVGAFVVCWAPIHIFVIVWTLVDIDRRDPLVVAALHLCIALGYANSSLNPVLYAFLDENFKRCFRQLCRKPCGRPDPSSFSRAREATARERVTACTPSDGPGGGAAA

Beta Lactamase [18] = biological target: T3, Beta Lactamase (Pseudomonas aeruginosa, UniProt Q932Y6); test: VIM-2 inhibitor FRET-based artefact check, dose response, artefact control for selective VIM-2 inhibitor project, biochemical, FRET readout, CCF2 substrate (AID 1926)
T3 sequence (Q932Y6 whole entry): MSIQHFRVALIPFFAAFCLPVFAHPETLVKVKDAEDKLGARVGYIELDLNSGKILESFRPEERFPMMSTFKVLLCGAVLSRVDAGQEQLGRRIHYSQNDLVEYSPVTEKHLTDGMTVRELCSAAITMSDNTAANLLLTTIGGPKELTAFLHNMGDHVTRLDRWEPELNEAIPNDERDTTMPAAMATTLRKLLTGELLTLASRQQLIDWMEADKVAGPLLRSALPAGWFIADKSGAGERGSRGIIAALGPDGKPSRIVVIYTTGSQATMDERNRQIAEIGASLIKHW

Beta-lactamase [19] = biological target: T4, Beta-lactamase (Pseudomonas aeruginosa, UniProt Q79MP6); test: IMP-1 metallo-beta-lactamase inhibitors, dose response, selectivity assay for VIM-2 inhibitor project, biochemical, epi-absorbance (AID 1920)
T4 sequence (Q79MP6 whole entry): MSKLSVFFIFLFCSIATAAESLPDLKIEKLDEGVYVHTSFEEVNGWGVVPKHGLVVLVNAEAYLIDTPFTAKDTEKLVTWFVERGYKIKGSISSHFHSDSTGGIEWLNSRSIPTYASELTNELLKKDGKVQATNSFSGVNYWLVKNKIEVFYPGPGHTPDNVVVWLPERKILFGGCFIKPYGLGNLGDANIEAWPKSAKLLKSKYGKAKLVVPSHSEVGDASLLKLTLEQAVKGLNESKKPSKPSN

Beta-lactamase [20] = biological target: T4, Beta-lactamase; test: […] counterscreen for selective VIM-2 inhibitors: dose response biochemical high throughput screening assay to identify inhibitors of IMP-1 metallo-beta-lactamase.
Beta-lactamase [21] = biological target: Beta-lactamase (Salmonella choleraesuis (strain SC-B67), UniProt Q5J463); test: Epi-absorbance-based counterscreen for selective VIM-2 inhibitors: dose response biochemical high throughput screening assay to identify inhibitors of TEM-1 serine-beta-lactamase.
Beta-lactamase (Salmonella choleraesuis (strain SC-B67), UniProt Q5J463), sequence (Q5J463 whole entry): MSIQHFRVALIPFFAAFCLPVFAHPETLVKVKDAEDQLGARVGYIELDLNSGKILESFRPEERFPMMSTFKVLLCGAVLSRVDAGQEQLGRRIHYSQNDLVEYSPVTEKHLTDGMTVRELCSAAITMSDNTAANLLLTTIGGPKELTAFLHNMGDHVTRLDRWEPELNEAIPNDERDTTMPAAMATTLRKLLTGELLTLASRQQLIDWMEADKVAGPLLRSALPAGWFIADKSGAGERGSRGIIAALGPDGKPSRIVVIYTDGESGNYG

Beta Lactamase [22] = biological target: T3, Beta Lactamase; test: VIM-2 metallo-beta-lactamase inhibitor potency, dose response, biochemical, epi-absorbance readout, selective inhibitors (AID 1919)

## O=S(=O)(NC[C@@H]1[C@@H](c2ccccc2)[C@H](CO)N1CC1CC1)c1ccccc1
[1]
  AC50: > 52 µM (inactive)
HEK293
  AC50: > 52 µM (inactive)

## CC1CN(C(=O)c2ccoc2)CCN1c1cc(-c2ccco2)nc2cc(-c3ccccc3)nn12 (stereo not drawn)
[2]
  EC50: 0.0002986 µM

## CCOC(=O)c1cc(C(=O)OC)c(C)nc1N1CCC(NC2CCCCC2O)CC1 (stereo not drawn)
[3]
  IC50: > 50 µM (inactive)

## CN1CCN(C2=C(Nc3ccc(Cl)cc3)C(=O)c3ccccc3C2=O)CC1
[4]
  AC50: 17.4 µM (active)
[5]
  AC50: 39.3 µM (active)
[6]
  AC50: 11.6 µM (active)

## Cc1cccc(CSC(=N)N)c1
Cells [7]
  IC50: > 30 µM (inactive)
[8]
  EC50: 1.21 µM (active)
[9]
  IC50: 16.9 µM (inactive)
Cells [10]
  EC50: > 30 µM (inactive)

## CS(=O)(=O)N(Cc1nc2ccccc2[nH]1)c1ccccc1Cl
[11]
  EC50: 2.46 µM

## Cc1ccccc1S(=O)(=O)N1CC[C@@H]2[C@H](CO)Nc3ccc(-c4cccc(C#N)c4)cc3[C@@H]21
A549
  AC50: 28.8 µM (active)

## CCOC(=O)CC1CCCCN1C(=O)c1cc(COc2cccc3cnccc23)on1 (stereo not drawn)
INS1
  AC50: 5.89 µM (active)
[12]
  AC50: 0.713 µM (active)
Protein Wnt-3a
  IC50: 0.777 µM (active)
Cells [13]
  EC50: > 29.9 µM (inactive)
[14]
  AC50: 0.67 µM (active)
[15]
  IC50: > 80 µM (inactive)
[16]
  IC50: 11 µM (active)
Galanin receptor type 3
  IC50: 0.448 µM (active)

## COC(=O)c1cc(Br)cnc1N1CCC(NC2CCCCCC2)CC1
Mu-type opioid receptor
  IC50: 4.2 µM (active)
[17]
  IC50: 12 µM (inactive)

## CC(=C/c1ccccc1)/C=N/n1c(C)nnc1S
Beta Lactamase [18]
  IC50: 2.5 µM (active)
Beta-lactamase [19]
  IC50: > 59.6 µM (inactive)
Beta-lactamase [20]
  IC50: > 59.6 µM (inactive)
Beta-lactamase [21]
  IC50: > 59.6 µM (inactive)
Beta Lactamase [22]
  IC50: 9.98 µM (active)
